Source: article PMC7765409 (International Journal of Molecular Sciences, 2020)

How the values were obtained:
[1] = test system: CDK9; set-up: method as in AstraZeneca data repository; conditions: median log of IC50/EC50/Ki/Kd annotations, highest value; ref AstraZeneca data repository; cited from earlier work
[2] = test system: CDK2 gene expression; assay: RT-qPCR gene expression in TG/FA-treated hiPSC-Hep; assay type: cell-based, human; conditions: 24 h pre-treatment then TG/FA 18 h; relative to TG/FA
Experimental: (§1) To explore the signaling partners triggered or altered by the drugs, we performed gene expression RT-qPCR. The hiPSC-Hep were pre-treated in a 24-well plate with the three compounds shown in Figure 7 for 24 h followed by TG/FA challenge for an additional 18 h and RNA from each treatment well was isolated. The pre-treatment paradigm was chosen to stay consistent with how the original HTS was performed. We analyzed several target gene expression levels in the C/EBP-EP300 pathway including CDK2, CDK4, C/EBPα and C/EBPβ, EP300, and diacylglycerol acyltransferase 2 (DGAT2).
(§2) RNA was isolated from hiPSC-derived hepatocytes using the RNeasy kit (Qiagen, Frederick) and subsequently subjected to DNase digestion (Qiagen). Total RNA was quantified using NanoDrop 8000 (Thermo Scientific). The quality of total RNA was assessed by the Agilent Bioanalyzer Nano chip (Agilent Technologies) and RNA integrity number (RIN) ranged from 9.7 to 10. Reverse transcription was performed using the high capacity cDNA reverse transcription kit (Applied Biosystems, Foster City, CA, USA) according to the manufacturer’s recommendation and the complementary DNA (cDNA) obtained used for real-time quantitative PCR. The reaction mixture (10 μL), containing 1 μL of cDNA template, 0.5 μL each of primer and probe (20×, Thermo Fisher Scientific) mix for the gene of interest plus the reference gene and TaqMan Universal PCR master mix (Applied Biosystems) was added to the opaque white 384-well plates and amplified as follows: after 2 min of initial incubation at 50 °C and 10 min of initial denaturation at 95 °C, 45 cycles at 95 °C for 15 s, 60 °C for 1 min for annealing and 1 sec at 72 °C for final extension were performed. Assays were designed to have primers/probes to span exon–exon junctions (Table S1). Direct detection of PCR products was monitored by measuring the fluorescence produced by the result of TaqMan probe hydrolysis after every cycle. All experiments were carried out in triplicate in a LightCycler 480 thermocycler (Roche Diagnostic). Relative gene expression from qPCR data between groups of samples were assessed using a ∆∆Cq method. To adjust for variations in the cDNA synthesis each gene was normalized to that of hypoxanthine phosphoribosyl transferase 1 (HPRT1] or GAPDH mRNA.

[3] = test system: C/EBPα mRNA expression; assay: RT-qPCR gene expression in TG/FA-treated hiPSC-Hep; assay type: cell-based, human; conditions: 24 h pre-treatment then TG/FA 18 h
Experimental: as §1, §2

[4] = test system: CDK4 gene expression; assay: RT-qPCR gene expression in TG/FA-treated hiPSC-Hep; assay type: cell-based, human; conditions: 24 h pre-treatment then TG/FA 18 h, relative to TG/FA
Experimental: as §1, §2

[5] = test system: EP300 gene expression; assay: RT-qPCR gene expression in TG/FA-treated hiPSC-Hep; assay type: cell-based, human; conditions: 24 h pre-treatment then TG/FA 18 h; relative to TG/FA
Experimental: as §1, §2

[6] = test system: CDK12; set-up: method as in AstraZeneca data repository; conditions: median log of IC50/EC50/Ki/Kd annotations, highest value; ref AstraZeneca data repository; cited from earlier work
[7] = test system: CDK16; set-up: method as in AstraZeneca data repository; conditions: median log of IC50/EC50/Ki/Kd annotations, highest value; ref AstraZeneca data repository; cited from earlier work
[8] = test system: CDK14; set-up: method as in AstraZeneca data repository; conditions: median log of IC50/EC50/Ki/Kd annotations, highest value; ref AstraZeneca data repository; cited from earlier work
[9] = test system: CDK7; set-up: method as in AstraZeneca data repository; conditions: median log of IC50/EC50/Ki/Kd annotations, highest value; ref AstraZeneca data repository; cited from earlier work
[10] = test system: CDK5; set-up: method as in AstraZeneca data repository; conditions: median log of IC50/EC50/Ki/Kd annotations, highest value; ref AstraZeneca data repository; cited from earlier work
[11] = test system: CDK5R1; set-up: method as in AstraZeneca data repository; conditions: median log of IC50/EC50/Ki/Kd annotations, highest value; ref AstraZeneca data repository; cited from earlier work
[12] = test system: CDK6; set-up: method as in AstraZeneca data repository; conditions: median log of IC50/EC50/Ki/Kd annotations, highest value; ref AstraZeneca data repository; cited from earlier work
[13] = test system: C/EBPβ gene expression; assay: RT-qPCR gene expression in TG/FA-treated hiPSC-Hep; assay type: cell-based, human; conditions: 24 h pre-treatment then TG/FA 18 h; relative to TG/FA
Experimental: as §1, §2

[14] = test system: DGAT2 mRNA; assay: RT-qPCR gene expression in TG/FA-treated hiPSC-Hep; assay type: cell-based, human; conditions: dose-dependent, under condition of hepatic steatosis (TG/FA)
Experimental: as §1, §2

[15] = test system: CDK8; set-up: method as in AstraZeneca data repository; conditions: median log of IC50/EC50/Ki/Kd annotations, highest value; ref AstraZeneca data repository; cited from earlier work

| SMILES | pXC50 CDK9 [1] | effect on CDK2 gene expression [2] | C/EBPα mRNA expression suppressed by ([3]; 5 µM) | CDK4 gene expression suppressed to ([4]; 5 µM) | effect on EP300 gene expression [5] | pXC50 CDK12 [6] | pXC50 CDK16 [7] | pXC50 CDK14 [8] | pXC50 CDK7 [9] | pXC50 CDK5 [10] | pXC50 CDK5R1 [11] | pXC50 CDK6 [12] | effect on C/EBPβ gene expression [13] | DGAT2 mRNA level decreased by [14] | effect on C/EBPα mRNA level ([3]; relative to TG/FA) | effect on CDK4 mRNA level [4] | pXC50 CDK8 [15] |
| --- | --- | --- | --- | --- | --- | --- | --- | --- | --- | --- | --- | --- | --- | --- | --- | --- | --- |
| CNC(=O)c1nn(C)c2c1C(C)(C)Cc1cnc(Nc3ccc(N4CCN(C)CC4)cc3)nc1-2 [C16, Milciclib] | 5.60 | overall increase | 47% | ~34% | not significantly affected | 5.34 | 7.10 | 6.13 | 7.51 | 6.58 | 6.58 | 7.61 | – | – | – | – | – |
| Cc1ncc(-c2nc(Nc3ccc(N4CCN(C(=O)CO)CC4)cc3)ncc2F)n1C(C)C [C3] | – | no effect | – | – | no effect | – | – | – | – | – | – | – | no effect | 46% | no effect | no effect | 5.60 |
